What all share (test): Fungicidal effect on infected agar nutrient media, colony diameter
Common to all, as to assay type: cell-based

For one assay, the system named is Sclerotinia sclerotinia. Conditions: 3rd day after treatment, untreated control 41.7. As to the method: Agar nutrient media (Diameter 70 MM, thickness 10 mm) infected by Sclerotonia sclerotinia suspension are treated with 20 EC formulations prepared according to Example 27 and comprising 1, 10, 100 and 1000 ppm, respectively of the active ingredient of the Formula I. The fungicidal effect of the compositions is evaluated on the 3rd day after treatment by measuring the diameter of the Fungi colonies.

Another assay relates to Penicillium cyclopium. Conditions: 7th day after treatment, untreated 26.5. In short, it runs like this:
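Agar media (70 mm diameter, 10 mm thick) infected with Penicillium cyclopium were treated with EC formulations at 1, 10, 100 and 1000 ppm active ingredient. Fungal colony diameter was measured on day 7 after treatment.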

For the next assay, the system named is Alternaria tenuis. Conditions: 5th day after treatment, untreated control 36.8. The procedure, abridged: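 Agar media (70 mm diameter, 10 mm thick) infected with Alternaria tenuis, treated with EC formulations at 1, 10, 100 and 1000 ppm active ingredient. Fungicidal effect read on day 5 after treatment as fungal colony diameter.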

The results in this text go back to patent US4877893A, “Process for the preparation of 2-(O-alkyl)-2-thio-1,3,2-oxathiophospholanes” (priority 1987, dated 1989).

Consider `CC(Cl)C(C)OP1(=S)OC(C)C(C)S1` (stereo not drawn) [Compound 43, 2-(0-1',2'-dimethyl-2'-chloroethyl)-2-thio-4,5-dimethyl-1,3,2-oxathiophospholane], for which the “Diameter of colony (mm)” value in the assay with Sclerotinia sclerotinia (1 ppm) is 37.6 mm; in the assay on Sclerotinia sclerotinia (10 ppm) it was 28.2 mm; in the assay on Sclerotinia sclerotinia (100 ppm), 2.4 mm; with Sclerotinia sclerotinia (1000 ppm), 0 mm; in the assay with Penicillium cyclopium (1 ppm), 25.2 mm; with Penicillium cyclopium (10 ppm), 18.4 mm. Further, the “Diameter of colony (mm)” value with Penicillium cyclopium (100 ppm) is 6.3 mm; in the assay on Penicillium cyclopium (1000 ppm), 0 mm; with Alternaria tenuis (1 ppm) it was 32.4 mm; in the assay with Alternaria tenuis (10 ppm), 23.3 mm; with Alternaria tenuis (100 ppm) it was 6.2 mm; with Alternaria tenuis (1000 ppm) it was 0 mm.
As for `CC(Br)C(C)OP1(=S)OC(C)C(C)S1` (stereo not drawn) [Compound 44], the “Diameter of colony (mm)” value in the assay on Sclerotinia sclerotinia (1 ppm) is recorded as 35.4 mm; in the assay with Sclerotinia sclerotinia (10 ppm) it was 28.1 mm; with Sclerotinia sclerotinia (100 ppm), 4.0 mm; in the assay on Sclerotinia sclerotinia (1000 ppm), 0 mm; in the assay on Penicillium cyclopium (1 ppm) it was 17.9 mm; in the assay on Penicillium cyclopium (10 ppm), 17.1 mm. The “Diameter of colony (mm)” value in the assay with Penicillium cyclopium (100 ppm) is on record as 5.1 mm; in the assay with Penicillium cyclopium (1000 ppm) it was 0 mm; in the assay on Alternaria tenuis (1 ppm), 33.5 mm; with Alternaria tenuis (10 ppm), 26.2 mm; in the assay on Alternaria tenuis (100 ppm), 7.0 mm; in the assay with Alternaria tenuis (1000 ppm) it was 0 mm.
Turning to `CC(I)C(C)OP1(=S)OC(C)C(C)S1` (stereo not drawn) [Compound 45], the “Diameter of colony (mm)” value with Sclerotinia sclerotinia (1 ppm) stood at 39.2 mm; in the assay with Sclerotinia sclerotinia (10 ppm), 30.0 mm; in the assay on Sclerotinia sclerotinia (100 ppm), 1.6 mm; with Sclerotinia sclerotinia (1000 ppm), 0 mm; in the assay with Penicillium cyclopium (1 ppm) it was 24.2 mm; in the assay with Penicillium cyclopium (10 ppm), 15.5 mm. The “Diameter of colony (mm)” value with Penicillium cyclopium (100 ppm) was determined as 6.0 mm; with Penicillium cyclopium (1000 ppm), 0 mm; in the assay with Alternaria tenuis (1 ppm) it was 34.0 mm; in the assay on Alternaria tenuis (10 ppm) it was 20.4 mm; in the assay on Alternaria tenuis (100 ppm) it was 5.7 mm; in the assay on Alternaria tenuis (1000 ppm) it was 0 mm.
Regarding `CCCOP1(=S)OCCS1` (stereo not drawn) [Compound 46, 2-(0-n-propyl)-2-thio-1,3,2-oxathiophospholane], the “Diameter of colony (mm)” value with Sclerotinia sclerotinia (1 ppm) was found to be 34.6 mm; with Sclerotinia sclerotinia (10 ppm), 28.7 mm; with Sclerotinia sclerotinia (100 ppm), 4.2 mm; in the assay with Sclerotinia sclerotinia (1000 ppm), 0 mm; with Penicillium cyclopium (1 ppm), 25.1 mm; in the assay with Penicillium cyclopium (10 ppm), 18.9 mm. In addition, the “Diameter of colony (mm)” value in the assay with Penicillium cyclopium (100 ppm) came out at 7.9 mm; in the assay on Penicillium cyclopium (1000 ppm) it was 0 mm; in the assay with Alternaria tenuis (1 ppm), 34.2 mm; with Alternaria tenuis (10 ppm) it was 24.3 mm; in the assay with Alternaria tenuis (100 ppm), 5.8 mm; with Alternaria tenuis (1000 ppm), 0 mm.
Take `CCCOP1(=S)OC(C)CS1` (stereo not drawn) [Compound 47, 2-(0-n-propyl)-2-thio-5-methyl-1,3,2-oxathiophospholane]: the “Diameter of colony (mm)” value in the assay with Sclerotinia sclerotinia (1 ppm) turned out to be 33.9 mm; in the assay with Sclerotinia sclerotinia (10 ppm), 30.2 mm; with Sclerotinia sclerotinia (100 ppm), 3.9 mm; in the assay with Sclerotinia sclerotinia (1000 ppm), 0 mm; in the assay on Penicillium cyclopium (1 ppm) it was 23.8 mm; with Penicillium cyclopium (10 ppm), 20.1 mm. Also, the “Diameter of colony (mm)” value was found to be 8.3 mm in the assay on Penicillium cyclopium (100 ppm); 0 mm with Penicillium cyclopium (1000 ppm); 33.5 mm with Alternaria tenuis (1 ppm); 25.7 mm with Alternaria tenuis (10 ppm); 7.0 mm in the assay with Alternaria tenuis (100 ppm); 0 mm in the assay with Alternaria tenuis (1000 ppm).
Regarding `CCCOP1(=S)OCC(C)S1` (stereo not drawn) [Compound 48, 2-(0-n-propyl)-2-thio-4-methyl-1,3,2-oxathiophospholane], the “Diameter of colony (mm)” value with Sclerotinia sclerotinia (1 ppm) stood at 35.8 mm; in the assay with Sclerotinia sclerotinia (10 ppm), 29.1 mm; in the assay on Sclerotinia sclerotinia (100 ppm), 2.8 mm; in the assay on Sclerotinia sclerotinia (1000 ppm), 0 mm; with Penicillium cyclopium (1 ppm), 24.2 mm; in the assay with Penicillium cyclopium (10 ppm), 19.2 mm. Besides, the “Diameter of colony (mm)” value worked out at 8.5 mm with Penicillium cyclopium (100 ppm); 0 mm in the assay with Penicillium cyclopium (1000 ppm); 36.1 mm with Alternaria tenuis (1 ppm); 24.6 mm with Alternaria tenuis (10 ppm); 6.3 mm with Alternaria tenuis (100 ppm); 0 mm in the assay with Alternaria tenuis (1000 ppm).
As to `CCC(C)OP1(=S)OCCS1` (stereo not drawn) [Compound 49], the “Diameter of colony (mm)” value in the assay on Sclerotinia sclerotinia (1 ppm) is listed as 37.2 mm; with Sclerotinia sclerotinia (10 ppm), 30.4 mm; in the assay with Sclerotinia sclerotinia (100 ppm) it was 4.0 mm; with Sclerotinia sclerotinia (1000 ppm), 0 mm; with Penicillium cyclopium (1 ppm) it was 26.3 mm; in the assay with Penicillium cyclopium (10 ppm), 20.3 mm. Also, the “Diameter of colony (mm)” value worked out at 7.5 mm in the assay with Penicillium cyclopium (100 ppm); 0 mm in the assay on Penicillium cyclopium (1000 ppm); 34.3 mm in the assay on Alternaria tenuis (1 ppm); 25.9 mm in the assay on Alternaria tenuis (10 ppm); 7.0 mm in the assay on Alternaria tenuis (100 ppm); 0 mm in the assay with Alternaria tenuis (1000 ppm).
Regarding `CC(C)COP1(=S)OCCS1` (stereo not drawn) [Compound 50, 2-(0-2'-methyl-n-propyl)-2-thio-1,3,2-oxathiophospholane], the “Diameter of colony (mm)” value was 36.5 mm in the assay with Sclerotinia sclerotinia (1 ppm); 29.7 mm with Sclerotinia sclerotinia (10 ppm); 3.7 mm in the assay with Sclerotinia sclerotinia (100 ppm); 0 mm with Sclerotinia sclerotinia (1000 ppm); 25.1 mm in the assay on Penicillium cyclopium (1 ppm); 19.2 mm with Penicillium cyclopium (10 ppm). In addition, the “Diameter of colony (mm)” value is 7.7 mm in the assay on Penicillium cyclopium (100 ppm); 0 mm with Penicillium cyclopium (1000 ppm); 35.2 mm with Alternaria tenuis (1 ppm); 23.8 mm in the assay with Alternaria tenuis (10 ppm); 5.3 mm in the assay with Alternaria tenuis (100 ppm); 0 mm in the assay on Alternaria tenuis (1000 ppm).
Regarding `CCCOP1(=S)OCC(CC)S1` (stereo not drawn) [Compound 51, 2-(0-n-propyl)-2-thio-4-ethyl-1,3,2-oxathiophospholane], the “Diameter of colony (mm)” value stood at 34.3 mm in the assay on Sclerotinia sclerotinia (1 ppm); 30.0 mm in the assay on Sclerotinia sclerotinia (10 ppm); 3.2 mm in the assay with Sclerotinia sclerotinia (100 ppm); 0 mm in the assay on Sclerotinia sclerotinia (1000 ppm); 24.9 mm in the assay with Penicillium cyclopium (1 ppm); 18.7 mm in the assay with Penicillium cyclopium (10 ppm). Besides, the “Diameter of colony (mm)” value in the assay on Penicillium cyclopium (100 ppm) came to 8.2 mm; with Penicillium cyclopium (1000 ppm), 0 mm; in the assay on Alternaria tenuis (1 ppm), 35.1 mm; with Alternaria tenuis (10 ppm) it was 24.3 mm; in the assay with Alternaria tenuis (100 ppm) it was 6.9 mm; with Alternaria tenuis (1000 ppm), 0 mm.
Consider `CC(C)COP1(=S)OC(C)CS1` (stereo not drawn) [Compound 52, 2-(0-2'-methyl-n-propyI)-2-thio-5-methyl-1,3,2-oxathiophospholane], for which the “Diameter of colony (mm)” value with Sclerotinia sclerotinia (1 ppm) stood at 37.1 mm; in the assay on Sclerotinia sclerotinia (10 ppm) it was 28.6 mm; in the assay on Sclerotinia sclerotinia (100 ppm), 3.0 mm; in the assay with Sclerotinia sclerotinia (1000 ppm), 0 mm; in the assay on Penicillium cyclopium (1 ppm), 26.2 mm; with Penicillium cyclopium (10 ppm), 20.0 mm. In addition, the “Diameter of colony (mm)” value in the assay on Penicillium cyclopium (100 ppm) amounted to 8.8 mm; with Penicillium cyclopium (1000 ppm) it was 0 mm; with Alternaria tenuis (1 ppm), 34.8 mm; in the assay with Alternaria tenuis (10 ppm) it was 26.2 mm; in the assay with Alternaria tenuis (100 ppm), 4.7 mm; in the assay with Alternaria tenuis (1000 ppm), 0 mm.
On to `CCC(C)OP1(=S)OC(C)C(C)S1` (stereo not drawn) [Compound 53, 2-(0-1'-methyl-n-propyl)-2-thio-4,5-dimethyl1,3,2-oxathiophospholane], for which the “Diameter of colony (mm)” value with Sclerotinia sclerotinia (1 ppm) stood at 35.8 mm; with Sclerotinia sclerotinia (10 ppm) it was 30.0 mm; with Sclerotinia sclerotinia (100 ppm), 3.8 mm; in the assay on Sclerotinia sclerotinia (1000 ppm) it was 0 mm; in the assay with Penicillium cyclopium (1 ppm), 24.8 mm; in the assay with Penicillium cyclopium (10 ppm), 19.2 mm. Moreover, the “Diameter of colony (mm)” value turned out to be 7.6 mm in the assay on Penicillium cyclopium (100 ppm); 0 mm in the assay on Penicillium cyclopium (1000 ppm); 33.9 mm with Alternaria tenuis (1 ppm); 25.4 mm in the assay with Alternaria tenuis (10 ppm); 6.6 mm in the assay on Alternaria tenuis (100 ppm); 0 mm with Alternaria tenuis (1000 ppm).
`CC(C)C(C)OP1(=S)OC(C)C(C)S1` (stereo not drawn) [Compound 54, 2-(0-1',2'-dimethyl-n-propyl)-2-thio-4,5-dimethyl1,3,2-oxathiophospholane]: the “Diameter of colony (mm)” value in the assay on Sclerotinia sclerotinia (1 ppm) worked out at 34.9 mm; with Sclerotinia sclerotinia (10 ppm), 29.0 mm; with Sclerotinia sclerotinia (100 ppm), 4.1 mm; with Sclerotinia sclerotinia (1000 ppm), 0 mm; in the assay with Penicillium cyclopium (1 ppm), 25.2 mm; in the assay on Penicillium cyclopium (10 ppm), 18.8 mm. Also, the “Diameter of colony (mm)” value is recorded as 7.9 mm with Penicillium cyclopium (100 ppm); 0 mm in the assay with Penicillium cyclopium (1000 ppm); 34.7 mm in the assay on Alternaria tenuis (1 ppm); 24.6 mm with Alternaria tenuis (10 ppm); 7.2 mm in the assay with Alternaria tenuis (100 ppm); 0 mm with Alternaria tenuis (1000 ppm).
